This note sets out measurements from patent publication US5554653A, “Inhibitors of HIV protease useful for the treatment of AIDS” (Eli Lilly and Company, priority 1992, dated 1996).

This assay has as its target T1, HIV-1 protease (Human immunodeficiency virus type 1 group M subtype B, UniProt P04585).
T1 construct: Purified HIV-1 protease was obtained as described above; made in house; host or cells: E. coli K12 L507/pHP10D (NRRL B-18560)
The assay can be described thus: biochemical. It is filed as biochemical. The following applies: for IC50: read-out: Fluorescence Assay IC50 (converted); for IC3: read-out: Fluorescence Assay IC3. The procedure:
C. Preparation of Protease Fraction
A culture of E. coli K12 L507/pHP10D was grown to mid-log phase at 32° C. in LB media containing 12.5 μg/ml tetracycline. The cultivation temperature was quickly elevated to 40° C. to induce gene expression, and the cells were allowed to grow for 2.5 hours at this temperature before the culture was quickly chilled on ice. The cells were centrifuged and the cell pellet was resuspended in 20 mL 50 mmol MES buffer (pH 6.0) containing 1 mmol EDTA, 1 mmol DTT, 1 mmol PMSF and 10% glycerol ("Buffer A"). Cells were lysed by sonication using a Fischer Model 300 Dismembrator and a microtip probe. Following centrifugation at 27,000×g, the supernatant was diluted to a total volume of 60 mL with Buffer A and loaded onto a 2.0×19 cm QAE-Sepharose column (1 mL/min, 4° C.), that had been equilibrated in Buffer A. The column was washed isocratically for 180 min and then eluted with a gradient eluent of 0-1.0M sodium chloride in Buffer A over 120 min. Enzymatic activity was measured by HPLC using the synthetic peptide SQNYPIV as described in Margolin et al., Biochem. Biophys. Res. Commun., 167, 554-560 (1990); the production of the p1 peptide (SQNY) was measured.
The active fractions were combined, made 1.2M in ammonium sulfate, and applied to a 2.0×18 cm hexyl agarose column that had been equilibrated in Buffer A containing 1.2M ammonium sulfate. The sample was loaded at a flow rate of 1 mL/min at 4° C., washed with the equilibration buffer for 240 min (1 mL/min) and then eluted using a reverse linear gradient of 1.2-0M ammonium sulfate in Buffer A for 120 min at the same flow rate. The column was then washed isocratically in Buffer A for 120 min.
The active fractions were combined, concentrated to 10 mL using an Amicon stirred cell with a YM-10 membrane and then applied to a MonoS cation exchange column (1.0×10 cm) that had been equilibrated in Buffer A. The sample was loaded at a flow rate of 1 mL/min at 25° C. After washing isocratically for 30 min, the protease was eluted using a linear gradient of 0-0.45M sodium chloride in Buffer A over 40 min. The column was washed isocratically in Buffer A containing 0.45M sodium chloride for 30 min.
The active fractions were combined and concentrated to 200 μL using an Amicon stirred cell and a YM-10 membrane and then the protease was applied to a Superose 6 size exclusion column equilibrated in Buffer A containing 0.1M sodium chloride.
The purified peptide was labeled with a fluorescent marker at the C-terminal end for use in the Pandex assay. N^α -Biotin-[…]OH SEQ ID NO:3. (1.206 g, 0.936 mmol) was dissolved in 100 mL of 0.1M sodium borate, pH 9.5. Then, a solution of 3 g (7.7 mmol) of fluorescein isothiocyanate in 15 mL dimethyl sulfoxide was added to the reaction mixture in 10 equal portions over two hours. The resulting mixture was allowed to react for one hour after the final addition. The solution was adjusted to pH 3 using 5N hydrochloric acid, resulting in the formation of a precipitate which was removed by centrifugation.
E. Fluorescence HIV-1 Protease Inhibitor Assay
The following buffers and solutions are used in the Fluorescence HIV-1 Protease Inhibitor Assay:
MES-ALB Buffer: 0.05M 4-morpholineethane
Avidin Coated 0.1% solution of Fluoricon
Beads Solution: Avidin Assay Particles
(Avidin conjugated to solid
polystyrene beads, 0.6-0.8
microns in diameter in TBSA
27 IU/mL of purified HIV-1
protease in MES-ALB buffer
(1 IU equals the amount of
enzyme required to hydrolyze
1 μmole of substrate per
To each well of a round bottom, 96-well plate is added 20 μL of the Enzyme Solution followed by 10 μL of the compound to be evaluated in a 20% aqueous dimethylsulfoxide solution. Purified HIV-1 protease was obtained as described above.

Some results are limits rather than exact numbers.

For orientation: IC50 means the concentration needed to halve the response being measured. Turning to `CC(C)(C)NC(=O)c1ccccc1C[C@@H](O)[C@H](Cc1ccccc1)NC(=O)[C@@H](CS(=O)(=O)Cc1ccccc1)NS(C)(=O)=O` [Example 19E, [2R-(2R*,3S*,6S*)]-N-t-Butyl-2-[2-hydroxy-3-phenylmethyl-4-aza-5-oxo-6-N(methylsulfonyl)amino-7-benzylsulfonyl]heptyl benzamide], the IC50 is 4.66 nM.

In the case of `CC(C)(C)NC(=O)c1ccccc1C[C@@H](O)[C@H](Cc1ccccc1)NC(=O)[C@H](CC(N)=O)NS(=O)(=O)CCc1cccc2ccccc12` [Example 35, [2R-(2R*,3S*,6S*)]-N-t-Butyl-2-[2-hydroxy-3-phenylmethyl-4-aza-5-oxo-6-N (naphth-1-ylethylsulfonyl)amino-7-carbamoyl]heptyl benzamide], the IC50 was 1.04 nM.

As for `CC(C)(C)NC(=O)c1ccccc1C[C@@H](O)[C@H](Cc1ccccc1)NC(=O)[C@H](N)COCc1ccccc1` [Example 13B, [2R-(2R*,3S*,6R*)]-N-t-Butyl-2-[2-hydroxy-3-phenylmethyl-4-aza-5-oxo-6-amino-7-benzyloxy]heptyl benzamide], the IC5 (read-out: Fluorescence Assay IC5) turned out to be 1 µg/mL.

Consider `CCCC(=O)N[C@H](CC(=O)OCc1ccccc1)C(=O)N[C@@H](Cc1ccccc1)[C@H](O)Cc1ccccc1C(=O)NC(C)(C)C` [Example 7, [2R-(2R*, 3S *, 6R*)]-N-t-butyl-2-[2-hydroxy-3-phenylmethyl-4-aza-5-oxo-6-N(butanoyl)amino-7-benzyloxycarbonyl]heptyl benzamide], for which the IC50 is 115 nM.

Regarding `CC(=O)N[C@H](CSc1ccc2ccccc2c1)C(=O)N[C@@H](Cc1ccccc1)[C@H](O)Cc1ccccc1C(=O)NC(C)(C)C` [Example 16A, [2R-(2R*, 3S*, 6S*)]-N-t-Butyl-2-[2-hydroxy-3-phenylmethyl-4-aza-5-oxo-6-N (ethanoyl)amino-7-naphth-2-ylthio]heptyl benzamide], the IC50 was 10.6 nM.

For `CC(C)(C)NC(=O)c1ccccc1C[C@@H](O)[C@H](Cc1ccccc1)NC(=O)[C@@H](CS(=O)(=O)c1ccc2ccccc2n1)NS(C)(=O)=O` [Example 23D, [2R-(2R*,3S*,6S*)]-N-t-Butyl-2-[2-hydroxy-3-phenylmethyl-4-aza-5-oxo-6-N(methylsulfonyl)amino-7-quinolin-2-ylsulfonyl]heptyl benzamide], the IC50 is 1.18 nM.

Consider `CC(C)(C)NC(=O)c1ccccc1C[C@@H](O)[C@H](Cc1ccccc1)NC(=O)[C@@H](CSCc1ccccc1)NS(C)(=O)=O` [Example 19C, [2R-(2R*,3S*,6S*)]-N-t-Butyl-2-[2-hydroxy-3-phenylmethylyl-4-aza-5-oxo-6-N(methylsulfonyl)amino-7-benzylthio]heptyl benzamide], for which the IC50 was 3.6 nM.

Regarding `CC(C)(C)NC(=O)c1ccccc1C[C@@H](O)[C@H](Cc1ccccc1)NC(=O)[C@H](N)CSc1ccc2ccccc2c1` [Example 15B, [2R-(2R*,3S*,6S*)]-N-t-Butyl-2-[2-hydroxy-3-phenylmethyl-4-aza-5-oxo-6-amino-7-naphth-2-ylthio]heptyl benzamide], the IC50 was 223 nM.

For `CC(C)(C)NC(=O)c1ccccc1C[C@@H](O)[C@H](Cc1ccccc1)NC(=O)[C@@H](CC(=O)OCc1ccccc1)NC(N)=O` [Example 12, [2R-(2R*, 3S*, 6R*)]-N-t-butyl-2-[2-hydroxy-3-phenylmethyl-4-aza-5-oxo-6-N(carbamoyl)amino-7-benzyloxycarbonyl]heptyl benzamide], the IC50 is 28.9 nM.

For the compound `CC(=O)N[C@H](CC(=O)Nc1cnc2ccccc2c1)C(=O)N[C@@H](Cc1ccccc1)[C@H](O)Cc1ccccc1C(=O)NC(C)(C)C` [Example 3, [2R-(2R*, 3S*, 6R*)]-N-t-butyl-2-[2-hydroxy-3-phenylmethyl-4-aza-5-oxo-6-N(ethanoyl)amine-8-oxo-8-N (quinolin-3-yl)amine]octyl benzamide], the IC50 was 548 nM.

Consider `CC(=O)N[C@H](Cc1c[nH]c2ccccc12)C(=O)N[C@@H](Cc1ccccc1)[C@H](O)Cc1ccccc1C(=O)NC(C)(C)C` [Example 25, [2R-(2R*,3S*,6R*)]-N-t-Butyl-2-[2-hydroxy-3-phenylmethyl-4-aza-5-oxo-6-N-(ethanoyl)amino-7-indol-3-yl]heptyl benzamide], for which the IC50 is > 1760 nM.

For `CC(=O)N[C@H](CSCc1ccccc1)C(=O)N[C@@H](Cc1ccccc1)[C@H](O)Cc1ccccc1C(=O)NC(C)(C)C` [Example 18A, [2R-(2R*, 3S*, 6S*)]-N-t-Butyl-2-[2-hydroxy-3-phenylmethyl-4-aza-5-oxo-6-N (ethanoyl)amino-7-benzylthio]heptyl benzamide], the IC50 is 12.9 nM.

With `CC(C)(C)NC(=O)c1ccccc1C[C@@H](O)[C@H](Cc1ccccc1)NC(=O)[C@H](CC(=O)OCc1ccccc1)NC(=O)C(F)(F)F` [Example 41, [2R-(2R*,3S*,6S*)]-N-t-Butyl-2-[2-hydroxy-3-phenylmethyl-4-aza-5-oxo-6-N(trifluoromethylcarbonyl)amino-7-benzyloxycarbonyl]heptyl benzamide], for the setting “read-out: Fluorescence Assay IC52”, the IC52 amounted to 0.02 µg/mL.

Consider `CC(C)(C)NC(=O)c1ccccc1C[C@@H](O)[C@H](Cc1ccccc1)NC(=O)[C@@H](CSc1ccccc1)NC(=O)OC(C)(C)C` [Example 22A, [2R-(2R *,3S*,6S*)]-N-t-Butyl-2-[2-hydroxy-3-phenylmethyl-4-aza-5-oxo-6-N(t-butoxycarbonyl)amino-7-phenylthio]heptyl benzamide], for which the IC3 was found to be 2 µg/mL.

Turning to `CC(C)(C)NC(=O)c1ccccc1C[C@@H](O)[C@H](Cc1ccccc1)NC(=O)[C@H](CC(N)=O)NS(=O)(=O)c1ccc2ccccc2c1` [Example 34, [2R-(2R*,3S*,6S*)]-N-t-Butyl-2-[2-hydroxy-3-phenylmethyl-4-aza-5-oxo-6-N (naphth-2-ylsulfonyl)amino-7-carbamoyl]heptyl benzamide], the IC50 was 2.02 nM.

For the compound `CC(C)(C)NC(=O)c1ccccc1C[C@@H](O)[C@H](Cc1ccccc1)NC(=O)[C@H](N)CSCc1ccccc1` [Example 19B, [2R-(2R*, 3S*, 6S*)]-N-t-Butyl-2-[2-hydroxy-3-phenylmethyl-4-aza-5-oxo-6-amino-7-benzylthio]heptyl benzamide], under “read-out: Fluorescence Assay IC16”, the IC16 came out at 1 µg/mL.

On to `CC(=O)N[C@H](CS(=O)(=O)c1ccc2ccccc2c1)C(=O)N[C@@H](Cc1ccccc1)[C@H](O)Cc1ccccc1C(=O)NC(C)(C)C` [Example 16B, [2R-(2R*,3S*,6S*)]-N-t-Butyl-2-[2-hydroxy-3-phenylmethyl-4-aza-5-oxo-6-N(ethanoyl)amino-7-naphth-2-ylsulfonyl]heptyl benzamide], for which the IC50 is 0.186 nM.

With `CC(=O)N[C@H](CS(=O)(=O)c1ccc2ccccc2n1)C(=O)N[C@@H](Cc1ccccc1)[C@H](O)Cc1ccccc1C(=O)NC(C)(C)C` [Example 24C, [2R-(2R*,3S*,6S*)]-N-t-Butyl-2-[2-hydroxy-3-phenylmethyl-4-aza-5-oxo-6-N(ethanoyl)amino-7-quinolin-2-ylsulfonyl]heptyl benzamide], the IC50 was 0.248 nM.

On to `CC(=O)N[C@H](CC(=O)NCc1ccccn1)C(=O)N[C@@H](Cc1ccccc1)[C@H](O)Cc1ccccc1C(=O)NC(C)(C)C` [Example 2, [2R-(2R*, 3S*, 6R*)]-N-t-Butyl-2-[2-hydroxy-3-phenylmethyl-4-aza-5-oxo-6-N(ethanoyl)amino-8-oxo-9-aza-10-pyrid-2-yl]decyl benzamide], for which the IC50 is 451 nM.

Regarding `CC(C)(C)NC(=O)c1ccccc1C[C@@H](O)[C@H](Cc1ccccc1)NC(=O)[C@H](N)CSc1ccccc1` [Example 22B, [2R-(2R*,3S*,6S*)]-N-t-Butyl-2-[2-hydroxy-3-phenylmethyl-4-aza-5-oxo-6-amino-7-phenylthio]heptyl benzamide], the IC3 worked out at 1 µg/mL.
